Activity calls are given as the source filed them. The calls are words filed in the database; no cut-off is given here.
What was measured:
[1] = biological target: T1, Beta-2 adrenergic receptor (Homo sapiens, UniProt P07550); test: Binding affinity to immobilized Halo tag-fused beta2 adrenoceptor (unknown origin) expressed in Escherichia coli BL21 (DE3) assessed as reduction in retention time by chromatographic analysis
Target sequence in this assay (P07550 whole entry, looked up, the tested form may be a part): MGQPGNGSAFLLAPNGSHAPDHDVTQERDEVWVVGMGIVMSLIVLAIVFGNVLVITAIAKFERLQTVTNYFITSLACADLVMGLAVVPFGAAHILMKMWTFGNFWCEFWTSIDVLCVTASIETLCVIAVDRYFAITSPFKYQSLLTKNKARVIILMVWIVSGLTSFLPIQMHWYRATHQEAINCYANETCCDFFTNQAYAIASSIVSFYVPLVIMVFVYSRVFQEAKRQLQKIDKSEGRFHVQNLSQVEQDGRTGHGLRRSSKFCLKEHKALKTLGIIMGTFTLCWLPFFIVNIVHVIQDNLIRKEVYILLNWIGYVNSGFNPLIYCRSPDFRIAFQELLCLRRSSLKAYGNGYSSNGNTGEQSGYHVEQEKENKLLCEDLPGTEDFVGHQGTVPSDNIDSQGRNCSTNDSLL

[2] = biological target: T1, Beta-2 adrenergic receptor; test: Displacement of [3H]-CGP12,177 from immobilized Halo tag-fused beta2 adrenoceptor (unknown origin) expressed in Escherichia coli BL21 (DE3)
Target sequence in this assay (P07550 whole entry, the tested form may be a part): as the sequence (P07550 whole entry, looked up, the tested form may be a part) above

[3] = biological target: T1, Beta-2 adrenergic receptor
Target sequence in this assay (P07550 whole entry, looked up, the tested form may be a part): as above
Description: Binding affinity to immobilized Halo tag-fused beta2 adrenoceptor (unknown origin) expressed in Escherichia coli BL21 (DE3) assessed as retention time by chromatographic analysis

`CC1(C)[C@@H](O)CC[C@]2(C)[C@H]3C(=O)C=C4[C@@H]5C[C@@](C)(C(=O)NCCc6ccc(O)cc6)CC[C@]5(C)CC[C@@]4(C)[C@]3(C)CC[C@@H]12` was tested, and the Activity [1] was “Active”.

`CNC(C)Cc1ccccc1OC` (centres undefined) [METHOXYPHENAMINE] was tested, and the Ka [2] was 2.08 10^5/M and the Retention time [3] was 4.6 min.

`O=NO` gave a Retention time [3] of 2.4 min.
